# Marks after values point to notes of the source that are not given here.
# How the values were obtained:
# Kidney Fibroblast = assay: MTT proliferation assay, mouse kidney fibroblast; assay type: cell-based; conditions: for order of inhibitory effect: kidney fibroblast
# Method: Cell proliferation was measured by MTT assay. DMEM with 10% fetal serum was used as cell culture medium. The cells were prepared in suspension (1×10^5/ml), and 100 μL of the suspension was transferred to each well of a 96 wells plate. Once the cells were attached to the plastic, the culture was changed to serum free medium and continued for another 24 hours. The serum free medium was aspirated, and various concentrations of 1-(3′-fluorophenyl)-5-methyl-2(1H)-pyridone (AKF-PD) 1-(3′-bromophenyl)-5-methyl-2(1H)-pyridone (AKF-BR) or PIRFENIDONE (PFD) in 10% serum medium were added into each well with 5 replicates for each concentration. The cells were stained with MTT (10 μL per well) at 24, 48, and 72 hours post drug treatment. After 4 hrs of incubation, the medium with MTT was aspirated from each well. One hundred μL MTT solvent was added to each well for 15 min. The dissolved MTT was then measured with a plate reader at 570 nm.
# [1] = test system: Human Skin Scar Forming Fibroblasts; assay: MTT proliferation assay, human skin scar forming fibroblasts; assay type: cell-based
# Method: (§1) In the following examples, myocardiac fibroblasts, skin scar forming fibroblast and human peritoneal mesothelial cells are primary cultures prepared according to common procedure. Other cells are commercially purchased. 1-(3-fluorophenyl)-5-methyl-2(1H)-pyridone (AKF-PD) is prepared as a suspension in 5% carboxymethylcellulose.
# (§2) Cell proliferation was measured by MTT assay. DMEM with 10% fetal serum was used as cell culture medium. The cells were prepared in suspension (1×10^5/ml), and 100 μL of the suspension was transferred to each well of a 96 wells plate. Once the cells were attached to the plastic, the culture was changed to serum free medium and incubated for another 24 hours. Then, the serum free medium was aspirated, and various concentrations of 1-(3′-fluorophenyl)-5-methyl-2(1H)-pyridone (AKF-PD) or PIRFENIDONE (PFD) in 10% serum medium were added into each well with 5 replicates for each concentration. The cells were stained with MTT (10 μL per well) at 12, 24, or 48 hours post drug treatment. After 4 hrs of incubation, the medium with MTT was aspirated from each well. One hundred μL MTT solvent was added to each well for 15 min, and the dissolved MTT was measured with a plate reader at 570 nm.
# [2] = test system: Human Peritoneal Mesothelial Cells; assay: MTT proliferation assay, human peritoneal mesothelial cells; assay type: cell-based
# Method: as §1
# as §2, with “[…],” for “24,”
# Human Stellate Cells = assay: MTT proliferation assay, human stellate cells; assay type: cell-based
# Method: as §2, with “MTT was then measured with” for “MTT was measured with”
# [3] = test system: SD rat, Unilateral Ureteral Obstruction (UUO) model; assay: Rat UUO model of renal interstitial fibrosis, histological score (Example 8); assay type: in vivo; conditions: UUO rats; AKF-PD 500 mg/kg/d, Enalapril 10 mg/kg/d by gavage; 14 days post surgery; Radford's method
# Method: Anti-fibrotic effect of AKF-PD was tested on a SD rat model for renal interstitial fibrosis induced by surgical ligation of single side ureter (Unilateral Ureteral Obstruction, UUO, model). Eight weeks old male SD rats (180 g˜220 g) were randomly divided into sham surgical group, disease model group, Enalapril (10 mg/kg/d) group and AKF-PD (500 mg/kg/d) group. […] The animals of the sham surgical group experienced the same surgical procedure except the ligation step. The respective drugs were administrated by gavage to rats in the groups of Enalapril and AKF-PD from one day prior to the procedure to 14 days post surgical procedure. Normal saline was administrated in a similar fashion to the rats in the groups of disease model and sham surgical. The animals were sacrificed 14 days after surgical procedure and their left kidney were removed for pathological (HE staining) examination. Histological scoring for interstitial compartment was done according to Radford's method (Radford et al., Predicting renal outcome in IgA nephropathy. J. Am. Soc. Nephrol. 8: 199-207(1997)).
compound,measurement,setting,value
"Cc1ccc(=O)n(-c2cccc(F)c2)c1 [AKF-PD, 1-(3′-fluorophenyl)-5-methyl-2(1H)-pyridone]",inhibition of proliferation of kidney fibroblast,Kidney Fibroblast,capable of inhibiting the proliferation of kidney fibroblast
same,Optical Density at 570 nm,"Kidney Fibroblast; 100 μg/ml, 24 h",0.5907 ± 0.0199
same,Optical Density at 570 nm,"Kidney Fibroblast; 100 μg/ml, 48 h",0.5850 ± 0.0134
same,Optical Density at 570 nm,"Kidney Fibroblast; 100 μg/ml, 72 h",0.5080 ± 0.0145
same,Optical Density at 570 nm,"Kidney Fibroblast; 500 μg/ml, 24 h",0.5799 ± 0.1086
same,Optical Density at 570 nm,"Kidney Fibroblast; 500 μg/ml, 48 h",0.5185 ± 0.0331
same,Optical Density at 570 nm,"Kidney Fibroblast; 500 μg/ml, 72 h",0.4314 ± 0.0264
same,Optical Density at 570 nm,"Kidney Fibroblast; 1000 μg/ml, 24 h",0.5638 ± 0.0142
same,Optical Density at 570 nm,"Kidney Fibroblast; 1000 μg/ml, 48 h",0.4298 ± 0.0258
same,Optical Density at 570 nm,"Kidney Fibroblast; 1000 μg/ml, 72 h",0.3511 ± 0.0215
same,order of inhibitory effect,Kidney Fibroblast,AKF-PD>AKF-BR>pirfenidone
same,Optical Density at 570 nm,"[1]; 100 μg/ml, 12 h",0.192 ± 0.010
same,Optical Density at 570 nm,"[1]; 100 μg/ml, 24 h",0.245 ± 0.002
same,Optical Density at 570 nm,"[1]; 100 μg/ml, 48 h",0.366 ± 0.006
same,Optical Density at 570 nm,"[1]; 500 μg/ml, 12 h",0.192 ± 0.006
same,Optical Density at 570 nm,"[1]; 500 μg/ml, 24 h",0.238 ± 0.004
same,Optical Density at 570 nm,"[1]; 500 μg/ml, 48 h",0.345 ± 0.007
same,Optical Density at 570 nm,"[1]; 1000 μg/ml, 12 h",0.192 ± 0.009
same,Optical Density at 570 nm,"[1]; 1000 μg/ml, 24 h",0.221 ± 0.004
same,Optical Density at 570 nm,"[1]; 1000 μg/ml, 48 h",0.323 ± 0.009
same,Optical Density at 570 nm,"[1]; 2500 μg/ml, 12 h",0.190 ± 0.002
same,Optical Density at 570 nm,"[1]; 2500 μg/ml, 24 h",0.198 ± 0.008
same,Optical Density at 570 nm,"[1]; 2500 μg/ml, 48 h",0.267 ± 0.001
same,anti-proliferative potency compared with PIRFENIDONE,[1]; human skin fibroblasts,more potent anti-proliferative agent than PIRFENIDONE
same,Optical Density at 570 nm,"[2]; 100 μg/ml, 12 h",0.344 ± 0.004
same,Optical Density at 570 nm,"[2]; 100 μg/ml, 24 h",0.583 ± 0.004
same,Optical Density at 570 nm,"[2]; 100 μg/ml, 48 h",0.807 ± 0.007
same,Optical Density at 570 nm,"[2]; 500 μg/ml, 12 h",0.344 ± 0.005
same,Optical Density at 570 nm,"[2]; 500 μg/ml, 24 h",0.573 ± 0.004
same,Optical Density at 570 nm,"[2]; 500 μg/ml, 48 h",0.758 ± 0.010
same,Optical Density at 570 nm,"[2]; 1000 μg/ml, 12 h",0.343 ± 0.004
same,Optical Density at 570 nm,"[2]; 1000 μg/ml, 24 h",0.553 ± 0.004
same,Optical Density at 570 nm,"[2]; 1000 μg/ml, 48 h",0.704 ± 0.003
same,Optical Density at 570 nm,"[2]; 2500 μg/ml, 12 h",0.346 ± 0.005
same,Optical Density at 570 nm,"[2]; 2500 μg/ml, 24 h",0.502 ± 0.003
same,Optical Density at 570 nm,"[2]; 2500 μg/ml, 48 h",0.646 ± 0.006
same,anti-proliferative potency compared with PIRFENIDONE,[2]; human peritoneal mesothelial cells,more potent anti-proliferative agent than PIRFENIDONE
same,Optical Density at 570 nm,"Human Stellate Cells; 100 μg/ml, 12 h",0.202 ± 0.001
same,Optical Density at 570 nm,"Human Stellate Cells; 100 μg/ml, 24 h",0.366 ± 0.002
same,Optical Density at 570 nm,"Human Stellate Cells; 100 μg/ml, 48 h",0.442 ± 0.006
same,Optical Density at 570 nm,"Human Stellate Cells; 500 μg/ml, 12 h",0.202 ± 0.001
same,Optical Density at 570 nm,"Human Stellate Cells; 500 μg/ml, 24 h",0.341 ± 0.003
same,Optical Density at 570 nm,"Human Stellate Cells; 500 μg/ml, 48 h",0.406 ± 0.002
same,Optical Density at 570 nm,"Human Stellate Cells; 1000 μg/ml, 12 h",0.198 ± 0.001
same,Optical Density at 570 nm,"Human Stellate Cells; 1000 μg/ml, 24 h",0.312 ± 0.003
same,Optical Density at 570 nm,"Human Stellate Cells; 1000 μg/ml, 48 h",0.385 ± 0.004
same,Optical Density at 570 nm,"Human Stellate Cells; 2500 μg/ml, 12 h",0.195 ± 0.002
same,Optical Density at 570 nm,"Human Stellate Cells; 2500 μg/ml, 24 h",0.273 ± 0.005
same,Optical Density at 570 nm,"Human Stellate Cells; 2500 μg/ml, 48 h",0.246 ± 0.001
same,anti-proliferative potency compared with PIRFENIDONE,Human Stellate Cells; human stellate cells,more potent anti-proliferative agent than PIRFENIDONE
same,Histological Score for Interstitial Compartment,[3],6.43 ± 1.28
"Cc1ccc(=O)n(-c2ccccc2)c1 [PFD, 5-methyl-1-phenyl-2(1H)-pyridone, reference compound]",Optical Density at 570 nm,"Kidney Fibroblast; 100 μg/ml, 24 h",0.5911 ± 0.1002
same,Optical Density at 570 nm,"Kidney Fibroblast; 100 μg/ml, 48 h",0.5844 ± 0.0171
same,Optical Density at 570 nm,"Kidney Fibroblast; 100 μg/ml, 72 h",0.5264 ± 0.1530
same,Optical Density at 570 nm,"Kidney Fibroblast; 500 μg/ml, 24 h",0.5877 ± 0.1204
same,Optical Density at 570 nm,"Kidney Fibroblast; 500 μg/ml, 48 h",0.5450 ± 0.0196
same,Optical Density at 570 nm,"Kidney Fibroblast; 500 μg/ml, 72 h",0.4798 ± 0.2355
same,Optical Density at 570 nm,"Kidney Fibroblast; 1000 μg/ml, 24 h",0.5798 ± 0.0149
same,Optical Density at 570 nm,"Kidney Fibroblast; 1000 μg/ml, 48 h",0.5272 ± 0.0229
same,Optical Density at 570 nm,"Kidney Fibroblast; 1000 μg/ml, 72 h",0.4269 ± 0.0302
same,order of inhibitory effect,Kidney Fibroblast,AKF-PD>AKF-BR>pirfenidone
same,Optical Density at 570 nm,"[1]; 100 μg/ml, 12 h",0.194 ± 0.004
same,Optical Density at 570 nm,"[1]; 100 μg/ml, 24 h",0.250 ± 0.003
same,Optical Density at 570 nm,"[1]; 100 μg/ml, 48 h",0.366 ± 0.006
same,Optical Density at 570 nm,"[1]; 500 μg/ml, 12 h",0.191 ± 0.008
same,Optical Density at 570 nm,"[1]; 500 μg/ml, 24 h",0.245 ± 0.004*^+
same,Optical Density at 570 nm,"[1]; 500 μg/ml, 48 h",0.350 ± 0.003***^++
same,Optical Density at 570 nm,"[1]; 1000 μg/ml, 12 h",0.190 ± 0.008
same,Optical Density at 570 nm,"[1]; 1000 μg/ml, 24 h",0.330 ± 0.001*^++
same,Optical Density at 570 nm,"[1]; 1000 μg/ml, 48 h",0.328 ± 0.004***^++
same,Optical Density at 570 nm,"[1]; 2500 μg/ml, 12 h",0.193 ± 0.004
same,Optical Density at 570 nm,"[1]; 2500 μg/ml, 24 h",0.278 ± 0.001***^+++
same,Optical Density at 570 nm,"[1]; 2500 μg/ml, 48 h",0.264 ± 0.005
same,Optical Density at 570 nm,"[2]; 100 μg/ml, 12 h",0.346 ± 0.006
same,Optical Density at 570 nm,"[2]; 100 μg/ml, 24 h",0.584 ± 0.005
same,Optical Density at 570 nm,"[2]; 100 μg/ml, 48 h",0.810 ± 0.006
same,Optical Density at 570 nm,"[2]; 500 μg/ml, 12 h",0.343 ± 0.004
same,Optical Density at 570 nm,"[2]; 500 μg/ml, 24 h",0.577 ± 0.003
same,Optical Density at 570 nm,"[2]; 500 μg/ml, 48 h",0.766 ± 0.004
same,Optical Density at 570 nm,"Human Stellate Cells; 100 μg/ml, 12 h",0.206 ± 0.003
same,Optical Density at 570 nm,"Human Stellate Cells; 100 μg/ml, 24 h",0.371 ± 0.001
same,Optical Density at 570 nm,"Human Stellate Cells; 100 μg/ml, 48 h",0.447 ± 0.003
same,Optical Density at 570 nm,"Human Stellate Cells; 500 μg/ml, 12 h",0.202 ± 0.001
same,Optical Density at 570 nm,"Human Stellate Cells; 500 μg/ml, 24 h",0.345 ± 0.002
same,Optical Density at 570 nm,"Human Stellate Cells; 500 μg/ml, 48 h",0.413 ± 0.001***^++
same,Optical Density at 570 nm,"Human Stellate Cells; 1000 μg/ml, 12 h",0.201 ± 0.001
same,Optical Density at 570 nm,"Human Stellate Cells; 1000 μg/ml, 24 h",0.330 ± 0.001***^++
same,Optical Density at 570 nm,"Human Stellate Cells; 1000 μg/ml, 48 h",0.402 ± 0.001***^++
same,Optical Density at 570 nm,"Human Stellate Cells; 2500 μg/ml, 12 h",0.198 ± 0.001
same,Optical Density at 570 nm,"Human Stellate Cells; 2500 μg/ml, 24 h",0.278 ± 0.001***^+
same,Optical Density at 570 nm,"Human Stellate Cells; 2500 μg/ml, 48 h",0.306 ± 0.002***^+++
